{"source": "paper PMC11218446", "about": "“Antibacterial efficacy and membrane mechanism of action of the Serratia-derived non-ionic lipopeptide, serrawettin W2-FL10” (Microbiology Spectrum, 2024)", "type_in_all_cases": "cell-based, Staphylococcus aureus", "conditions_in_all_cases": "for ICF / IC50 ± SE / MIC ± SE: resazurin", "key": {"S. aureus RN4220": {"test_system": "S. aureus RN4220", "from_the_text": "(§1) Based on the broth microdilution assay results for W2-FL10 and melittin, the S. aureus ATCC 25923 (reference), S. aureus RN4220 (laboratory; MSSA), or methicillin-resistant S. aureus Xen 30 (clinical; MRSA) strains were selected for further antibacterial studies. Resazurin (also referred to as Alamar Blue) is a blue, non-fluorescent dye that can be reduced to resorufin (a pink, fluorescent compound) by metabolically active cells. The dye can thus be used as a quantitative indicator of cell viability ([52]). Therefore, a broth microdilution assay coupled with resazurin [prepared to a stock solution of 0.3 mg/mL in PBS; ([53])] was used to determine the influence of cations (Mg^2+ and Ca^2+), commercial LTA of S. aureus and DOPG on the potency of W2-FL10 against S. aureus ATCC 25923, S. aureus RN4220 and MRSA Xen 30 as described by Wu et al. ([54]).\n(§2) For investigating the influence of cations on the antibacterial potency of W2-FL10, a clear 96-well plate was prepared with W2-FL10 and air dried as described in the “Antibacterial activity: broth microdilution assay” section. The S. aureus strains were inoculated into MHB or CA-MHB, grown to mid-log phase (OD600 of 0.5–0.6), and diluted to OD600 of 0.4. A 1:20 dilution of the test strain (final concentration of ∼10^5 CFU/mL) was prepared and 100 µL was dispensed into each well (final concentration of W2-FL10 at 1.56 to 25 µg/mL). Sterile broth (i.e., MHB or CA-MHB) and the OD-adjusted inoculum were included in the assay as a positive control, while sterile broth (i.e., MHB or CA-MHB) was included as a sterility control. The plate was incubated for 24 h at 37°C.\n(§3) Similarly, the possible interaction and binding of LTA of S. aureus and DOPG (both at 1 mg/mL in 10% EtOH) with the lipopeptide W2-FL10 was investigated ([54]). Briefly, a clear 96-well plate was prepared with W2-FL10 and air dried as described in the “Antibacterial activity: broth microdilution assay” section. Thereafter, 10 µL of LTA from S. aureus or DOPG was dispensed into the respective wells. The S. aureus strains were grown to mid-log phase in MHB (OD600 of 0.5–0.6) and diluted to OD600 of 0.4. A 1:20 dilution of test strain (final concentration of ∼10^5 CFU/mL) was prepared, 100 µL was dispensed into each well (final concentration of W2-FL10 at 3.13 to 100 µg/mL), and the plate was incubated for 24 h at 37°C. Sterile broth, the OD-adjusted inoculum, and the respective LTA or DOPG were included in the assay as a positive control, while sterile broth and LTA or DOPG were included as a sterility control.\n(§4) After incubation of both plates, 10 µL of resazurin (0.3 mg/mL) was added to each well and the plate was incubated at 37°C for 1 h. Fluorometric readings of the experimental plates were conducted using a Tecan Spark 10M Multimode Microplate Reader at 560 nm excitation wavelength and 590 nm emission wavelength. For all resazurin assays, the percentage inhibition was calculated as described by van Rensburg et al. ([53]). All experiments were performed in triplicate, with independent biological duplicates. […] Dose-response curves (nonlinear regression using equation 1) were processed as described by Rautenbach et al. ([17]) (also see description above), and IC50 values were deduced from the best-fit sigmoidal curves (R^2 ≥ 0.98). Statistical analyses were done by comparing W2-FL10 IC50, in the presence of Ca^2+ and Mg^2+, in the presence of DOPG, and in the presence of LTA toward the control condition each of the three S. aureus strains using one-way analysis of variance (ANOVA) with Bonferroni’s post hoc test."}, "MRSA Xen 30": {"test_system": "MRSA Xen 30", "from_the_text": "as §1, §2, §3, §4"}, "S. aureus ATCC 25923": {"test_system": "S. aureus ATCC 25923", "from_the_text": "as §1, §2, §3, §4"}, "[1]": {"conditions": "LTA 100 µg/mL vs control, P < 0.001"}, "[2]": {"conditions": "Control (MHB), 24 h 37°C, n = 4"}, "[3]": {"conditions": "LTA of S. aureus 100 µg/mL, n = 3"}}, "note": "Where two headings read alike, the source gives them in different places.", "data": [{"compound": "CCCCCCCC1CC(=O)N[C@H](CC(C)C)C(=O)N[C@@H](CO)C(=O)N[C@@H]([C@@H](C)O)C(=O)N[C@H](Cc2ccccc2)C(=O)N[C@@H](CC(C)C)C(=O)O1", "note": "(stereo partly drawn) [W2-FL10, serrawettin W2-FL10]", "values": [{"measurement": "increase in the IC50 in the presence of LTA", "setting": "S. aureus RN4220; [1]", "value": "twofold"}, {"measurement": "ICF", "setting": "S. aureus RN4220; Ca2+ and Mg2+ (CA-MHB)", "value": 6.3}, {"measurement": "IC50 ± SE", "setting": "S. aureus RN4220; Ca2+ and Mg2+ (CA-MHB), n = 3", "value": 10, "unit": "µg/mL"}, {"measurement": "MIC ± SE", "setting": "S. aureus RN4220; Ca2+ and Mg2+ (CA-MHB), n = 3", "value": "25.0 ± 0.0", "unit": "µg/mL"}, {"measurement": "ICF", "setting": "S. aureus RN4220; Control (MHB)", "value": 3.6}, {"measurement": "MIC ± SE", "setting": "S. aureus RN4220; [2]", "value": "25.0 ± 0.0", "unit": "µg/mL"}, {"measurement": "IC50 ± SE", "setting": "S. aureus RN4220; Control (MHB), n = 4", "value": 13.2, "unit": "µg/mL"}, {"measurement": "ICF", "setting": "S. aureus RN4220; DOPG 100 µg/mL", "value": 2.2}, {"measurement": "IC50 ± SE", "setting": "S. aureus RN4220; DOPG 100 µg/mL, n = 3", "value": 44.6, "unit": "µg/mL"}, {"measurement": "MIC ± SE", "setting": "S. aureus RN4220; DOPG 100 µg/mL, n = 3", "value": "66.7 ± 16.7", "unit": "µg/mL"}, {"measurement": "ICF", "setting": "S. aureus RN4220; LTA 100 µg/mL", "value": 3.5}, {"measurement": "IC50 ± SE", "setting": "S. aureus RN4220; LTA 100 µg/mL, n = 3", "value": 26.8, "unit": "µg/mL"}, {"measurement": "MIC ± SE", "setting": "S. aureus RN4220; [3]", "value": "50.0 ± 0.0", "unit": "µg/mL"}, {"measurement": "increase in the IC50 in the presence of LTA", "setting": "MRSA Xen 30; [1]", "value": "twofold"}, {"measurement": "ICF", "setting": "MRSA Xen 30; Ca2+ and Mg2+ (CA-MHB)", "value": 1.7}, {"measurement": "IC50 ± SE", "setting": "MRSA Xen 30; Ca2+ and Mg2+ (CA-MHB), n = 4", "value": "12.2±0.2 (5) 9.5±1.5 (4) 40.6±2.0 (4) 24.6±0.1 (4) µg/mL"}, {"measurement": "MIC ± SE", "setting": "MRSA Xen 30; Ca2+ and Mg2+ (CA-MHB), n = 4", "value": "12.5 ± 0.0", "unit": "µg/mL"}, {"measurement": "ICF", "setting": "MRSA Xen 30; Control (MHB)", "value": 3.4}, {"measurement": "MIC ± SE", "setting": "MRSA Xen 30; Control (MHB), 24 h 37°C, n = 5", "value": "22.5 ± 2.5", "unit": "µg/mL"}, {"measurement": "IC50 ± SE", "setting": "MRSA Xen 30; Control (MHB), n = 5", "value": 12.2, "unit": "µg/mL"}, {"measurement": "ICF", "setting": "MRSA Xen 30; DOPG 100 µg/mL", "value": 2.4}, {"measurement": "IC50 ± SE", "setting": "MRSA Xen 30; DOPG 100 µg/mL, n = 4", "value": 40.6, "unit": "µg/mL"}, {"measurement": "MIC ± SE", "setting": "MRSA Xen 30; DOPG 100 µg/mL, n = 4", "value": "62.5 ± 12.5", "unit": "µg/mL"}, {"measurement": "ICF", "setting": "MRSA Xen 30; LTA 100 µg/mL", "value": 4.1}, {"measurement": "IC50 ± SE", "setting": "MRSA Xen 30; LTA 100 µg/mL, n = 4", "value": 24.6, "unit": "µg/mL"}, {"measurement": "MIC ± SE", "setting": "MRSA Xen 30; [3]", "value": "50.0 ± 17.7", "unit": "µg/mL"}, {"measurement": "increase in the IC50 in the presence of DOPG", "setting": "S. aureus ATCC 25923; DOPG 100 µg/mL vs control, P < 0.001", "value": "twofold"}, {"measurement": "ICF", "setting": "S. aureus ATCC 25923; Ca2+ and Mg2+ (CA-MHB)", "value": 2.2}, {"measurement": "IC50 ± SE", "setting": "S. aureus ATCC 25923; Ca2+ and Mg2+ (CA-MHB), n = 4", "value": 8.4, "unit": "µg/mL"}, {"measurement": "MIC ± SE", "setting": "S. aureus ATCC 25923; Ca2+ and Mg2+ (CA-MHB), n = 4", "value": "12.5 ± 0.0", "unit": "µg/mL"}, {"measurement": "ICF", "setting": "S. aureus ATCC 25923; Control (MHB)", "value": 4.3}, {"measurement": "MIC ± SE", "setting": "S. aureus ATCC 25923; [2]", "value": "21.9 ± 3.1", "unit": "µg/mL"}, {"measurement": "IC50 ± SE", "setting": "S. aureus ATCC 25923; Control (MHB), n = 4", "value": 10.6, "unit": "µg/mL"}, {"measurement": "ICF", "setting": "S. aureus ATCC 25923; DOPG 100 µg/mL", "value": 6.3}, {"measurement": "IC50 ± SE", "setting": "S. aureus ATCC 25923; DOPG 100 µg/mL, n = 4", "value": 22.5, "unit": "µg/mL"}, {"measurement": "MIC ± SE", "setting": "S. aureus ATCC 25923; DOPG 100 µg/mL, n = 4", "value": "56.3 ± 15.7", "unit": "µg/mL"}, {"measurement": "ICF", "setting": "S. aureus ATCC 25923; LTA 100 µg/mL", "value": 6.3}, {"measurement": "IC50 ± SE", "setting": "S. aureus ATCC 25923; LTA 100 µg/mL, n = 4", "value": 16.6, "unit": "µg/mL"}, {"measurement": "MIC ± SE", "setting": "S. aureus ATCC 25923; [3]", "value": "41.7 ± 8.3", "unit": "µg/mL"}]}]}
